# Molecular target: T1, Recombinant human GSK3β (Homo sapiens, UniProt P49841)
# T1 construct: His-tag; made in house; host or cells: Sf9 insect cells / baculovirus
# Assay: GSK-3β (Glycogen Synthase Kinase) cell free enzyme assay
# Format: biochemical
# Details: 1 μM; Examples 236-262; read-out: Percent inhibition at 1 μM
# Summary of the method: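 This cell-free kinase assay measured [33P] transfer from [33P]ATP gamma phosphate into the biotinylated peptide bio-LC-S-R-H-S-S-P-H-Q-pS-E-D-E-E-E-OH. After 60 min at RT, reactions were stopped with 0.66 volume of PBS lacking Ca or Mg containing 12.5 mM EDTA, 0.25% Triton-X 100, 125 uM ATP and 6.2 mg/ml streptavidin SPA beads. Bead-bound radioactivity was counted as CPM on a Trilux scintillation counter.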
# T1 sequence (P49841 whole entry): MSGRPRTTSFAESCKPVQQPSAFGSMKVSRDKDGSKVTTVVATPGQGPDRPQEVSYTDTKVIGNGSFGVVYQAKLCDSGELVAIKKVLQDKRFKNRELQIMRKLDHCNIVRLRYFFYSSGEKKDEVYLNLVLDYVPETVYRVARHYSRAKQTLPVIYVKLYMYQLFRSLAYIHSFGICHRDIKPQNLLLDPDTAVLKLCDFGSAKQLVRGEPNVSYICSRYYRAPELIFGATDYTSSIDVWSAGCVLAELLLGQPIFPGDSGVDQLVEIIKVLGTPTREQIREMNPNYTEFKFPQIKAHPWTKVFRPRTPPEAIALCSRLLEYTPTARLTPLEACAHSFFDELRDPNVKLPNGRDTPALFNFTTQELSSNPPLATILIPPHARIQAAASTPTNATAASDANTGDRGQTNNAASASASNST
row,Structure (SMILES),inhibition at 1 µM [%]
1,"CN(c1nc(-c2ccncc2)cc(=O)n1C)C1CCN(Cc2ccccc2)C1 (centres unmarked) [Example 256, 2-[(1-Benzylpyrrolidin-3-yl)(methyl)amino]-3-methyl-6-pyridin-4-ylpyrimidin-4(3H)-one]",83
2,"CCN(c1nc(-c2ccncc2)cc(=O)n1C)C1CCN(Cc2ccccc2)C1 (centres unmarked) [Example 257, 2-[(1-Benzylpyrrolidin-3-yl)(ethyl)amino]-3-methyl-6-pyridin-4-ylpyrimidin-4(3H)-one]",71
3,"CN(c1nc(-c2ccncc2)cc(=O)n1C)[C@@H]1CC[C@H]2N(Cc3ccccc3)CC[C@@]2(C)C1 [Example 258, 2-{[(3a,S5,R7,aR)-1-Benzyl-3a-methyloctahydro-1H-indol-5-yl](methyl)amino}-3-methyl-6-pyridin-4-ylpyrimidin-4(3H)-one]",43
4,"CCN(c1nc(-c2ccncc2)cc(=O)n1C)C1CCCN(Cc2ccccc2)CC1 (centres unmarked) [Example 259, 2-[(1-Benzylazepan-4-yl)(ethyl)amino]-3-methyl-6-pyridin-4-ylpyrimidin-4(3H)-one]",83
5,"CCN(c1nc(-c2ccncc2)cc(=O)n1C)C1CCN(Cc2ccccc2)CC1 [Example 260, 2-[(1-Benzylpiperidin-4-yl)(ethyl)amino]-3′-methyl-6-pyridin-4-ylpyrimidin-4(3H)-one]",44
6,"Cn1c(NCC2CCN(Cc3ccccc3)C2)nc(-c2ccncc2)cc1=O (centres unmarked) [Example 261, 2-{[(1-Benzylpyrrolidin-3-yl)methyl]amino}-3-methyl-6-pyridin-4-ylpyrimidin-4(3H)-one]",70
7,"Cn1c(N[C@@H]2CC[C@@H](NCc3ccccc3)C2)nc(-c2ccncc2)cc1=O [Example 262, 2-{[(1R,3R)-3-(Benzylamino)cyclopen-tyl]amino}-3-methyl-6-pyridin-4-ylpyrimidin-4(3H)-one]",48

# Same assay, conditions: cell free enzyme assay; Examples 265-291
row,Structure (SMILES),IC50 [nM]
1,"CCc1cn2nc(N3C[C@@H]4[C@H](C3)[C@H]4N(C)c3nc(-c4ccncc4F)cc(=O)n3C)ccc2n1 [Example 265, 2-{[(1R,5S,6s)-3-(2-Ethylimidazo[1,2-b]pyridazin-6-yl)-3-azabicyclo[3.1.0]hex-6-yl](methyl)amino}-6-(3-fluoropyridin-4-yl)-3-methylpyrimidin-4(3H)-one]",52.4
2,"CN(c1nc(-c2ccncc2F)cc(=O)n1C)[C@H]1[C@@H]2CN(c3nc4cc(F)ccc4n3C)C[C@@H]21 [Example 266, 2-{[(1R,5S,6s)-3-(5-Fluoro-1-methyl-1H-benzimidazol-2-yl)-3-azabicyclo[3.1.0]hex-6-yl](methyl)amino}-6-(3-fluoropyridin-4-yl)-3-methylpyrimidin-4(3H)-one]",16.7
3,"COc1ccc2oc(N3C[C@@H]4[C@H](C3)[C@H]4N(C)c3nc(-c4ccncc4F)cc(=O)n3C)nc2c1 [Example 267, 6-(3-Fluoropyridin-4-yl)-2-{[(1R,5S,6s)-3-(5-methoxy-1,3-benzoxazol-2-yl)-3-azabicyclo[3.1.0]hex-6-yl](methyl)amino}-3-methylpyrimidin-4(3H)-one]",14.2
4,"CN(c1nc(-c2ccncc2F)cc(=O)n1C)[C@H]1[C@@H]2CN(c3nc(C(F)(F)F)c(C(=O)OCc4ccccc4)s3)C[C@@H]21 [Example 268, Benzyl 2-[(1R,5S,6s)-6-{[4-(3-fluoropyridin-4-yl)-1-methyl-6-oxo-1,6-dihydropyrimidin-2-yl](methyl)amino}-3-azabicyclo[3.1.0]hex-3-yl]-4-(trifluoromethyl)-1,3-thiazole-5-carboxylate]",126
5,"CN(c1nc(-c2ccncc2F)cc(=O)n1C)[C@H]1[C@@H]2CN(c3nc4ccc(F)cc4n3C)C[C@@H]21 [Example 269, 2-{[(1R,5S,6s)-3-(6-Fluoro-1-methyl-1H-benzimidazol-2-yl)-3-azabicyclo[3.1.0]hex-6-yl](methyl)amino}-6-(3-fluoropyridin-4-yl)-3-methylpyrimidin-4(3H)-one]",18.8
6,"CN(c1nc(-c2ccncc2F)cc(=O)n1C)[C@H]1[C@@H]2CN(c3nc4ccccc4o3)C[C@@H]21 [Example 270, 2-{[(1R,5S,6s)-3-[1,3-Benzoxazol-2-yl)-3-azabicyclo[3.1.0]hex-6-yl](methyl)amino}-6-(3-fluoropyridin-4-yl)-3-methylpyrimidin-4(3H)-one]",24.6
7,"CN(c1nc(-c2ccncc2F)cc(=O)n1C)[C@H]1[C@@H]2CN(c3nnnn3Cc3ccc(C#N)cc3)C[C@@H]21 [Example 271, 4-({5-[(1R,5S,6s)-6-{[4-(3-Fluoropyridin-4-yl)-1-methyl-6-oxo-1,6-dihydropyrimidin-2-yl](methyl)amino}-3-azabicyclo[3.1.0]hex-3-yl]-1H-tetrazol-1-yl}methyl)benzonitrile]",8.8
8,"CN(c1nc(-c2ccncc2F)cc(=O)n1C)[C@H]1[C@@H]2CN(c3nc4ccccc4[nH]3)C[C@@H]21 [Example 272, 2-{[(1R,5S,6s)-3-(1H-Benzimidazol-2-yl)-3-azabicyclo[3.1.0]hex-6-yl](methyl)amino}-6-(3-fluoropyridin-4-yl)-3-methylpyrimidin-4(3H)-one]",76.1
9,"CCOCCn1nnnc1N1C[C@@H]2[C@H](C1)[C@H]2N(C)c1nc(-c2ccncc2F)cc(=O)n1C [Example 273, 2-[{(1R,5S,6s)-3-[1-(2-Ethoxyethyl)-1H-tetrazol-5-yl]-3-azabicyclo[3.1.0]hex-6-yl}(methyl)amino]-6-(3-fluoropyridin-4-yl)-3-methylpyrimidin-4(3H)-one]",29
10,"Cc1nnc2c(N3C[C@@H]4[C@H](C3)[C@H]4N(C)c3nc(-c4ccncc4F)cc(=O)n3C)nc(-c3ccccc3)cn12 [Example 274, 6-(3-Fluoropyridin-4-yl)-3-methyl-2-{methyl[(1R,5S,6s)-3-(3-methyl-6-phenyl[1,2,4]triazolo[4,3-a]pyrazin-8-yl)-3-azabicyclo[3.1.0]hex-6-yl]amino}pyrimidin-4(3H)-one]",234
11,"CN(c1nc(-c2ccncc2F)cc(=O)n1C)[C@H]1[C@@H]2CN(c3nnnn3-c3ccccc3F)C[C@@H]21 [Example 275, 2-[{(1R,5S,6s)-3-[1-(2-Fluorophenyl)-1H-tetrazol-5-yl]-3-azabicyclo[3.1.0]hex-6-yl}(methyl)amino]-6-(3-fluoropyridin-4-yl)-3-methylpyrimidin-4(3H)-one]",1.12
12,"CCOC(=O)c1cccc(-n2nnnc2N2C[C@@H]3[C@H](C2)[C@H]3N(C)c2nc(-c3ccncc3F)cc(=O)n2C)c1 [Example 276, Ethyl 3-{5-[(1R,5S,6s)-6-{[4-(3-fluoropyridin-4-yl)-1-methyl-6-oxo-1,6-dihydropyrimidin-2-yl](methyl)amino}-3-azabicyclo[3.1.0]hex-3-yl]-1H-tetrazol-1-yl}benzoate]",6.21
13,"Cc1nn(C2CCCC2)c2nc(N3C[C@@H]4[C@H](C3)[C@H]4N(C)c3nc(-c4ccncc4F)cc(=O)n3C)[nH]c(=O)c12 [Example 277, 1-Cyclopentyl-6-[(1R,5S,6s)-6-{[4-(3-fluoropyridin-4-yl)-1-methyl-6-oxo-1,6-dihydropyrimidin-2-yl](methyl)amino}-3-azabicyclo[3.1.0]hex-3-yl]-3-methyl-1,5-dihydro-4H-pyrazolo[3,4-d]pyrimidin-4-one]",51.7
